Literature values in US5229134A, “Pharmaceutical compositions” (Laboratories Smith Kline & French, priority 1989, dated 1993).

Details: plasma levels

SMILES: CN/C(=N/CCSCc1nc[nH]c1C)NC#N [cimetidine]
- therapeutically effective concentration in plasma: 0.5 mg/L
